Patent US20100305315A1, “Process for the preparation of 2-(primary/secondary amino)hydrocarbyl)-carbamoyl-7-oxo-2,6-diaza-bicyclo [3.2.0.]heptane-6-sulfonic acid derivatives” (Basilea Pharmaceutica AG, priority 2007, published 2010)

Experiment: physchem
Conditions: 25 °C, organic solvent or mixture

O=C1[C@H]2NCC[C@H]2N1S(=O)(=O)O [(1S,5R)-7-oxo-2,6-diaza-bicyclo[3.2.0]heptane-6-sulfonic acid]
solubility: ≤ 200 mg/mL
